In patent publication US20250136576A1, “Heterocyclic Compounds and Uses Thereof” (ACEA Therapeutics, Inc., priority 2021, published 2025):
Where two headings read alike, the source gives them in different places.

How the values were obtained:
Format in all cases: cell-based
MV-4-11 (AML) cells = assay: Cell proliferation and growth inhibition assay (CCK-8) in MV-4-11; conditions: Homo sapiens, MV4-11; MV-4-11 cells, treated with test compounds for 72 hrs, CCK-8 viability
Description: MV-4-11 and H1975 cells were obtained from the American Type Culture Collection and KM12-luc cells were obtained from JCRB Cell Bank. All cell lines were maintained at 37° C. with 5% C02, in media supplemented with 10% fetal bovine serum and penicillin (100 units/mL) and streptomycin (100 μg/mL). MV-4-11 cells were maintained in Iscove's Modified Dubecco's Medium, H1975 cells were cultured with RPMI 1640 media, and KM12-luc cells were maintained in Dulbecco's Modification of Eagle's Medium. CCK-8 reagent was obtained from Yeasen.
Cell proliferation was assessed by CCK-8 assay (Yeasen) per the manufacturer's instructions. The MV-4-11 (AML), H1975, and KM12-luc cells were seeded at 30,000, 3,000 and 2,500 cells per well onto 96-well plates, and after a 24 h incubation, the cells were treated with test compounds for 72 hrs. Cell viability was assayed by incubating the cells with CCK-8 reagent for 1-4 hrs. Absorbance was measured at OD450 using the Beckman DTX880. The data was calculated using GraphPad Prism version 6.01. The IC50 values were fitted using a non-linear regression model with a sigmoidal dose response.

KM12-luc cells = assay: Cell proliferation and growth inhibition assay (CCK-8) in KM12-luc; conditions: KM12-luc cells, treated with test compounds for 72 hrs, CCK-8 viability, read-out: NTRK IC50 in KM12-luc
Summary of the method: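 IC50 values were fitted by sigmoidal dose-response non-linear regression of CCK-8 OD450 absorbance after 1-4 hrs with reagent. Culture media were IMDM for MV-4-11, RPMI 1640 for H1975 and DMEM for KM12-luc, each with 10% FBS at 37 °C, 5% CO2.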

H1975 cells = assay: Cell proliferation and growth inhibition assay (CCK-8) in H1975; conditions: Homo sapiens, NCI-H1975, 72 h, treated with test compounds for 72 hrs, CCK-8 viability, read-out: EGFR IC50 in H1975
Summary of the method: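 Cells seeded at 30,000 (MV-4-11, IMDM) or 3,000 (H1975, RPMI 1640) per well, left 24 h, then compound-treated 72 h at 37 °C, 5% CO2, 10% FBS. Viability read by CCK-8 (1–4 h) at OD450. IC50 from sigmoidal dose-response nonlinear regression.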

SMILES | IC50 (MV-4-11 (AML) cells) | IC50 (KM12-luc cells; KM12-Luc, 72 h) | IC50 (H1975 cells) | IC50 (KM12-luc cells)
CC(=O)Nc1cc(Nc2ncc(Cl)c(-c3c[nH]c4ccccc34)n2)ccc1N(C)C(=O)CCN(C)C [Compound 446, N-(2-acetamido-4-((5-chloro-4-(1H-indol-3-yl)pyrimidin-2-yl)amino)phenyl)-3-(dimethylamino)-N-methylpropanamide] | 10.6 nM | 4.9 nM | 667 nM | –
CC(=O)Nc1cc(Nc2ncc(C(F)(F)F)c(-c3c[nH]c4c(F)cccc34)n2)ccc1N1CC[C@@H](N(C)C)C1 [Compound R-344, (R)—N-(2-(3-(dimethylamino)pyrrolidin-1-yl)-5-((4-(7-fluoro-1H-indol-3-yl)-5-(tri-fluoromethyl)pyrimidin-2-yl)amino)phenyl)acetamide] | 5.4 nM | 7.4 nM | 205 nM | –
CC(=O)Nc1cc(Nc2ncc(C(F)(F)F)c(-c3c[nH]c4c(C)cccc34)n2)ccc1N1CC[C@@H](N(C)C)C1 [Compound R-366, (R)—N-(2-(3-(dimethylamino)pyrrolidin-1-yl)-5-((4-(7-methyl-1H-indol-3-yl)-5-(trifluoromethyl)pyrimidin-2-yl)amino)phenyl)acetamide] | 5.3 nM | 5.2 nM | 88.6 nM | –
COc1cccc2c(-c3nc(Nc4ccc(N5CC[C@@H](N(C)C)C5)c(NC(C)=O)c4)ncc3C(F)(F)F)c[nH]c12 [Compound R-382, (R)—N-(2-(3-(dimethylamino)pyrrolidin-1-yl)-5-((4-(7-methoxy-1H-indol-3-yl)-5-(trifluoromethyl)pyrimidin-2-yl)amino)phenyl)acetamide] | 6.3 nM | 9.2 nM | 128 nM | –
COc1cccc2c(-c3nc(Nc4ccc(N5CC[C@@H](N(C)C)C5)c(N)c4)ncc3C(F)(F)F)c[nH]c12 [Compound R-383, (R)-4-(3-(dimethylamino)pyrrolidin-1-yl)-N^1-(4-(7-methoxy-1H-indol-3-yl)-5-(trifluoromethyl)pyrimidin-2-yl)benzene-1,3-diamine] | 4.7 nM | 8.5 nM | 129 nM | –
CC(=O)Nc1cc(Nc2ncc(Cl)c(-c3c[nH]c4c(C)cccc34)n2)ccc1N1CC[C@@H](N(C)C)C1 [Compound R-426, (R)—N-(5-((5-chloro-4-(7-methyl-1H-indol-3-yl)pyrimidin-2-yl)amino)-2-(3-(dimethylamino)pyrrolidin-1-yl)phenyl)acetamide] | 3 nM | 2.1 nM | 152 nM | –
CC(=O)Nc1cc(Nc2ncc(C(F)(F)F)c(-c3c[nH]c4c(F)cccc34)n2)ccc1N1CC[C@H](N(C)C)C1 [Compound S-344, (S)—N-(2-(3-(dimethylamino)pyrrolidin-1-yl)-5-((4-(7-fluoro-1H-indol-3-yl)-5-(tri-fluoromethyl)pyrimidin-2-yl)amino)phenyl)acetamide] | 5.6 nM | 6.3 nM | 198 nM | –
CC(=O)Nc1cc(Nc2ncc(C(F)(F)F)c(-c3c[nH]c4c(C)cccc34)n2)ccc1N1CC[C@H](N(C)C)C1 [Compound S-366, (S)—N-(2-(3-(dimethylamino)pyrrolidin-1-yl)-5-((4-(7-methyl-1H-indol-3-yl)-5-(trifluoromethyl)pyrimidin-2-yl)amino)phenyl)acetamide] | 3 nM | 3.1 nM | 97.8 nM | –
COc1cccc2c(-c3nc(Nc4ccc(N5CC[C@H](N(C)C)C5)c(NC(C)=O)c4)ncc3C(F)(F)F)c[nH]c12 [Compound S-382a, (S)—N-(2-(3-(dimethylamino)pyrrolidin-1-yl)-5-((4-(7-methoxy-1H-indol-3-yl)-5-(trifluoromethyl)pyrimidin-2-yl)amino)phenyl)acetamide] | 3.7 nM | 5.3 nM | 134 nM | –
COc1cccc2c(-c3nc(Nc4ccc(N5CC[C@H](N(C)C)C5)c(N)c4)ncc3C(F)(F)F)c[nH]c12 [Compound S-383, (S)-4-(3-(dimethylamino)pyrrolidin-1-yl)-N^1-(4-(7-methoxy-1-1H-indol-3-yl)-5-(trifluoromethyl)pyrimidin-2-yl)benzene-1,3-diamine] | 4.6 nM | 9.5 nM | 118 nM | –
Cc1cccc2c(-c3nc(Nc4ccc(N5CC[C@H](N(C)C)C5)c(N)c4)ncc3Cl)cn(C)c12 [Compound S-425, (S)—N^1-(5-chloro-4-(1,7-dimethyl-1H-indol-3-yl)pyrimidin-2-yl)-4-(3-(dimethylamino)pyrrolidin-1-yl)benzene-1,3-diamine] | 3.2 nM | – | 167 nM | 3.5 nM
CC(=O)Nc1cc(Nc2ncc(Cl)c(-c3cn(C)c4c(C)cccc34)n2)ccc1N1CC[C@H](N(C)C)C1 [Compound S-426, (S)—N-(5-((5-chloro-4-(1,7-dimethyl-1H-indol-3-yl)pyrimidin-2-yl)amino)-2-(3-(dimethylamino)pyrrolidin-1-yl)phenyl)acetamide] | 4.2 nM | – | 189 nM | 2.7 nM
